Assay results taken from patent US20250082630A1, “METHODS OF TREATING BRAIN TUMOURS AND NEUROBLASTOMAS” (AstraZeneca AB, priority 2021, published 2025).
Where two headings read alike, the source gives them in different places.

Assays:
PARP3 = PARP3 (Homo sapiens (Human), UniProt Q9Y6F1); assay: PARP fluorescence anisotropy binding assay, PARP3
Method: Recombinant full length PARP3 protein was diluted to 100 nM with 50 mM Tris pH 8, 0.001% Triton X100, 10 mM MgCl2, 150 mM NaCl and incubated for four hours with an equivalent volume of 6 nM fluorescent probe diluted with 50 mM Tris pH 8, 0.001% Triton X100, 10 mM MgCl2, 150 mM NaCl. The final DMSO concentration of the probe was kept below 1% (v/v).

BRCA2 (−/−) DLD1 cells = assay: PARP proliferation assay (7 day compound dosing), BRCA2 (−/−) DLD1; format: cell-based; settings: read-out: BRCA2 −/− DLD-1 prolif. 7 d IC50
Method: (§1) DLD1 and BRCA2 (−/−) DLD1 cells were harvested to a density of 5000 cells/ml and 2.5E4 cells/ml respectively in complete media, 40 μL/well seeded into 384-well plates (Greiner, Kremsmunster, Austria; 781090) using a Multidrop Combi then incubated at 37° C., 5% CO2 overnight. Next day (Day 1) using a Multidrop Combi add sytox green (5ul, 2 uM) and saponin (10 ul, 0.25% stock) to a day 0 plate, seal the plate using a black adhesive lid and incubate for >3 h at it. Cells were imaged using Cell Insight (Thermo Fisher) fitted with a 4x objective. Test compounds are added using an Echo 555 and placed in incubator maintained at 37° C., 5% CO2 and incubated for 7 days. On Day 8 add sytox green (5ul, 2 uM) and then saponin (10 ul, 0.25% stock) to plates, seal the plate using a black adhesive lid and incubate for >3 h at it. Read all cells on the Cell Insight with 4× Objective. The rate of proliferation is determined in Genedata by assessing the total cell number output from the Cell Insight for Day 0 and Day 8 plates.

PARP6 = PARP6 (Homo sapiens (Human), UniProt Q2NL67); assay: PARP fluorescence anisotropy binding assay, PARP6
Chain of PARP6 (Q2NL67 whole entry): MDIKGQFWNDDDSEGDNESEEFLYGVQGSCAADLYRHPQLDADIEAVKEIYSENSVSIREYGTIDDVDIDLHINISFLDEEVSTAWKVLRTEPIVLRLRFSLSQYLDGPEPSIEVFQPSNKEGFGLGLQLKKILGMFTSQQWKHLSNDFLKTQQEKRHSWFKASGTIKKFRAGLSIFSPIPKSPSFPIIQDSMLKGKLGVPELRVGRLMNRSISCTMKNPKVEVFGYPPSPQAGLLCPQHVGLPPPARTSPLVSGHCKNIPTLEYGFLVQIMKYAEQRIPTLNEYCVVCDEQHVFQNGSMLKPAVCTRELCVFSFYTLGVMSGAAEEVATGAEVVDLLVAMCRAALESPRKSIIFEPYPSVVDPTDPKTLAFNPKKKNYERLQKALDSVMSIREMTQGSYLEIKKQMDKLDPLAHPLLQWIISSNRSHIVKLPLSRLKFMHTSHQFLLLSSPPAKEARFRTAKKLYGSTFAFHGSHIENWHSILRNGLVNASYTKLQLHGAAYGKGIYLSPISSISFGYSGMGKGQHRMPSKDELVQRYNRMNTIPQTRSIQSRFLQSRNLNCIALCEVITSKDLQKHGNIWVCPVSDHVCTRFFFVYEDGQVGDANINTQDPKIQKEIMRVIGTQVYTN
Method: Recombinant full length GST tagged PARP6 protein was diluted to 160 nM with 50 mM Tris pH 8, 0.001% Triton X100, 10 mM MgCl2, 150 mM NaCl and incubated for four hours with an equivalent volume of 6 nM fluorescent probe diluted with 50 mM Tris pH 8, 0.001% Triton X100, 10 mM MgCI2, 150 mM NaCl. The final DMSO concentration of the probe was kept below 1% (v/v).
Fluorescence anisotropy of the probe when bound to the proteins was measured using a BMG Pherastar FSX® in the presence of test compounds or solvent control and the effect on anisotropy determined. % inhibition values for different test compound concentrations were calculated and fitted to a four parameter logistic plot in order to determine the IC50 value. Where necessary, the compound K, can be determined from the IC50 value using a Munson Rodbard equation defined in Anal Biochem. 1980 Sep. 1; 107(1):220-39 and is based on the known KD of the probe binding to the relevant PARP protein

PARP1 = PARP1 (Homo sapiens (Human), UniProt P09874); assay: PARP fluorescence anisotropy binding assay, PARP1
Chain of PARP1 (P09874 whole entry): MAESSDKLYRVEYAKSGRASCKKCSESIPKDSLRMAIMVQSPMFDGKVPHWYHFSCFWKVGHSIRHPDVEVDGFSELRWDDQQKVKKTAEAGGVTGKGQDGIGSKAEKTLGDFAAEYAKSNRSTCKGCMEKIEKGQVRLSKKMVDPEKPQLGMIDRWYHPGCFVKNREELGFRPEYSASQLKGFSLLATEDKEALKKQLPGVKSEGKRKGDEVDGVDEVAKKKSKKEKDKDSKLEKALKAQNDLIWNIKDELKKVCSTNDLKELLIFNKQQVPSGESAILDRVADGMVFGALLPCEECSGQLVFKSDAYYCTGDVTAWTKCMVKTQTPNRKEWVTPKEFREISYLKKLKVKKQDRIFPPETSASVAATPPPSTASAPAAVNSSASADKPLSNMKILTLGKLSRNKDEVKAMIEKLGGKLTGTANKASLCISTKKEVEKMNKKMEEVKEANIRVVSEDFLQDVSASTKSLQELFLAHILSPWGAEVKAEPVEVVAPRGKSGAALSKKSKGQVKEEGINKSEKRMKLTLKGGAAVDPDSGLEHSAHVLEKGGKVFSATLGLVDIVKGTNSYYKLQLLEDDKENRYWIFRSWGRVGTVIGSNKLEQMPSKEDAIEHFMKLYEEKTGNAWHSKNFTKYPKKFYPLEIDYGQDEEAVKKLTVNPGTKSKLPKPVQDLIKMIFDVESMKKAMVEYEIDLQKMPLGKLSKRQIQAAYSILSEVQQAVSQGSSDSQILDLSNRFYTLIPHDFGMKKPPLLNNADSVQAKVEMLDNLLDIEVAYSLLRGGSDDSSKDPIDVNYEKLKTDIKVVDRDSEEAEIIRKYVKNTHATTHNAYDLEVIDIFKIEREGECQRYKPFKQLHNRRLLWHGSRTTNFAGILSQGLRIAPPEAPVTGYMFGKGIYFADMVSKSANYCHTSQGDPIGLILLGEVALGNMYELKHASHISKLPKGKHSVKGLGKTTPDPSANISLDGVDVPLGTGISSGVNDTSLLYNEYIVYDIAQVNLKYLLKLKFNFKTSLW

PARP5a = PARP5a (Homo sapiens (Human), UniProt O95271); assay: PARP fluorescence anisotropy binding assay, PARP5a
Chain of PARP5a (O95271 1112-1317): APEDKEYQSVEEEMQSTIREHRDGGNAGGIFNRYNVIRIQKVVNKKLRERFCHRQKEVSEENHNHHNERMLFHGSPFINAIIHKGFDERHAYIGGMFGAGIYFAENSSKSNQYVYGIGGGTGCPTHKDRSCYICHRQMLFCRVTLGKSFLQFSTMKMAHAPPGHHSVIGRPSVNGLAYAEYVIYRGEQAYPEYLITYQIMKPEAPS
Method: Recombinant PARP5a binding domain was diluted to 160 nM with 50 mM Tris pH 8, 0.001% Triton X100, 10 mM MgCl2, 150 mM NaCl and incubated for four hours with an equivalent volume of 6 nM fluorescent probe diluted with 50 mM Tris pH 8, 0.001% Triton X100, 10 mM MgCl2, 150 mM NaCl. The final DMSO concentration of the probe was kept below 1% (v/v).

[1] = system: MDCKII cells expressing MDR1 and BCRP; assay: In vitro human transporter efflux (MDCK-MDR1-BCRP); settings: Papp(B to A)/Papp(A to B), 90-min incubation
Method: (§2) MDCKII cells expressing MDR1 and BCRP were seeded onto polyethylene membranes in 96-well Transwell insert systems at a density to form a confluent cell monolayer. […] The final percent volume of the organic solvent was less than 1%. Permeation of the test compounds from A to B direction and from B to A direction was determined over a 90-min incubation at 37° C. and 5% CO2 with a relative humidity of 95%. At the end of the incubation, samples from the apical and basolateral side were taken and then precipitated with cold acetonitrile containing internal standard. After centrifugation at 4000 rpm, the supernatant was diluted with 0.1% formic acid aqueous solution and quantified by LC-MS/MS. The integrity of the cell monolayers was confirmed by using the marker Lucifer yellow.
(§3) The permeability coefficient (1×10-6 cm/s) was calculated using the following equation
(§4) (1) The Efflux Ratio was Calculated Using the Following Equation
Efflux ratio=Papp(B to A)/Papp(A to B)
(§5) (2) where dCr/dt is the cumulative concentration of the compound in the receiver chamber as a function of time (in μM/s); Vr is the solution volume in the receiver chamber (0.1 ml on the apical side and 0.3 ml on the basolateral side); A is the surface area for the transport, that is, 0.11 cm2 for the area of the monolayer; and C0 is the initial concentration in the donor chamber (in μM).

hERG [2] = molecular target: T1, hERG (Homo sapiens (Human), UniProt Q12809); assay: hERG IC50; settings: read-out: hERG IC50
T1 sequence (Q12809 whole entry): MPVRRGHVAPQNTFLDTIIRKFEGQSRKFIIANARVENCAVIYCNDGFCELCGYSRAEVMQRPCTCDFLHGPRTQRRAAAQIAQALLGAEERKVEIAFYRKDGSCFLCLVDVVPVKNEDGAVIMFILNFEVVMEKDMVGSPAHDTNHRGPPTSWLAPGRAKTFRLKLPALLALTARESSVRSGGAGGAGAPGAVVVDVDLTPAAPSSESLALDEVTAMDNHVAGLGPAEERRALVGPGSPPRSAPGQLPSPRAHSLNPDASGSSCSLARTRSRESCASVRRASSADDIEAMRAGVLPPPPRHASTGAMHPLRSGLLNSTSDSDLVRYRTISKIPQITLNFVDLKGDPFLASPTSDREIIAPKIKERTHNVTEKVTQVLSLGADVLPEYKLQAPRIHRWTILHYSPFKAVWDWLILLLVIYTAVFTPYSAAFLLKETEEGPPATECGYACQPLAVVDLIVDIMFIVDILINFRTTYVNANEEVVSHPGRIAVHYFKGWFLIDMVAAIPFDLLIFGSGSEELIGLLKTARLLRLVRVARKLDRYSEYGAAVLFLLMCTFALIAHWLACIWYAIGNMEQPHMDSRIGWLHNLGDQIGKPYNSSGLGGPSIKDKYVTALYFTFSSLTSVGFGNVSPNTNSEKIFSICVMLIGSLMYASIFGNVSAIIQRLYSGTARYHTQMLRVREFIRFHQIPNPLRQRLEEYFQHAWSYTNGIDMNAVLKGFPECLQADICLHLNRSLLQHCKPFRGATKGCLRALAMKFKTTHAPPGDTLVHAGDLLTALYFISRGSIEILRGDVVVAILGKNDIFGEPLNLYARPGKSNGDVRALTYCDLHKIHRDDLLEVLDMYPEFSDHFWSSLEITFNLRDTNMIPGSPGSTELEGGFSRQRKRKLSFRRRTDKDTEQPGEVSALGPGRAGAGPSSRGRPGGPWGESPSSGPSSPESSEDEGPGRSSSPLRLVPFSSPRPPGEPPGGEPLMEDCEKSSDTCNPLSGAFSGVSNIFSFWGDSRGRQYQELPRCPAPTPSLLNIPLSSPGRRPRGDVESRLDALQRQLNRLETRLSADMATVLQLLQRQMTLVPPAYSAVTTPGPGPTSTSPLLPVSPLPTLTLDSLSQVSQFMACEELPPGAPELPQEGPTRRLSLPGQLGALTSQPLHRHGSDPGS

PARP2 = PARP2 (Homo sapiens (Human), UniProt Q9UGN5); assay: PARP fluorescence anisotropy binding assay, PARP2
Chain of PARP2 (Q9UGN5 whole entry): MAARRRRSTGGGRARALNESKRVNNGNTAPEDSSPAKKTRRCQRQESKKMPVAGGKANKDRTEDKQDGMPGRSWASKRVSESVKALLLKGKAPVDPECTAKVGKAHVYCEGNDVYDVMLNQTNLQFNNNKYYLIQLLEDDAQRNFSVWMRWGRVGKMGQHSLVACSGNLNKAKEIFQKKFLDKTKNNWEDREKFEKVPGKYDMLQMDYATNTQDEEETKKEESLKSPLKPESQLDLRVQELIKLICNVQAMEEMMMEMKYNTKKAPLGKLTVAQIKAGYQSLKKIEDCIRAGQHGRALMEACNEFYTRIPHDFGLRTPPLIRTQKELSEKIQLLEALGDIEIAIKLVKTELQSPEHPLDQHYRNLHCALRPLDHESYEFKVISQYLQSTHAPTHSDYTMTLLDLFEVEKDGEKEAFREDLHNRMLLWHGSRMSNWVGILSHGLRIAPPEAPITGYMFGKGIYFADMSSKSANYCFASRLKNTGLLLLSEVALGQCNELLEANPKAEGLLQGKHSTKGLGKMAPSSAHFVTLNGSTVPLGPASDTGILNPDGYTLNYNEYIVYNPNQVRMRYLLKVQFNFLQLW
In short: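 Recombinant full-length human PARP2 (6 nM before mixing) incubated 4 h with equal volume of 2 nM fluorescent probe in 50 mM Tris pH 8, 10 mM MgCl2, 150 mM NaCl, 0.001% Triton X100. Compound displacement measured as change in probe fluorescence anisotropy; IC50 from four-parameter logistic fit.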

[3] = system: MDCKII cells expressing MDR1 and BCRP
Method: as §2, §3, §4
Efflux ratio=Papp(B to A)/Papp(A to B)
as §5

hERG [4] = molecular target: T1, hERG
DLD1 cells = assay: PARP proliferation assay (7 day compound dosing), WT DLD1; format: cell-based; settings: read-out: WT DLD-1 prolif. 7 d IC50
Method: as §1

[5] = 30 mg/m^2 per day, days 1, 2 and 3 every 21 days, in combination with radiation therapy; cited from earlier work

Chain of PARP3 (Q9Y6F1 whole entry): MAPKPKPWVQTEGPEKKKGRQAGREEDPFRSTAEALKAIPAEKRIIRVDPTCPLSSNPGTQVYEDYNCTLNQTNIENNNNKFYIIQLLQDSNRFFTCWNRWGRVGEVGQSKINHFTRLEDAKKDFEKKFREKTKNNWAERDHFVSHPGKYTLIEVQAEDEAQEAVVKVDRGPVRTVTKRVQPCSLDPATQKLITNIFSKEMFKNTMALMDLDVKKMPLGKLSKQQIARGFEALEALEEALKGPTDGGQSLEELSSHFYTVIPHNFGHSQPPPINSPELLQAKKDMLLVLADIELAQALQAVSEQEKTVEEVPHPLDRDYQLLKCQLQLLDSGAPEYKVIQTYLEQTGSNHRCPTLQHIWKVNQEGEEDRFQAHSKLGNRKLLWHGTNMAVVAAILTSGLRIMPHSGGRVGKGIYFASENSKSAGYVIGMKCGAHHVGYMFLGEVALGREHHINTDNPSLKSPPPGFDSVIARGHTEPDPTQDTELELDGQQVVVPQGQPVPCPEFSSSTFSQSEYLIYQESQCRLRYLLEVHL

In the case of `CNC(=O)c1ccc(N2CCN(Cc3ccc4nc([C@H](C)F)c(=O)[nH]c4c3F)CC2)c(F)n1` (single isomer, unassigned) [Example 12, 6-fluoro-5-[4-[[5-fluoro-2-[(1S OR 1R)-1-fluoroethyl]-3-oxo-4H-quinoxalin-6-yl]methyl]piperazin-1-yl]-N-methyl-pyridine-2-carboxamide], the IC50 (PARP3) is reported as 85 µM, the IC50 (BRCA2 (−/−) DLD1 cells) is reported as 8 nM and the IC50 (PARP6) is reported as > 100 µM. For the same compound, the IC50 (PARP1) was 15 nM, the IC50 (PARP5a) was > 100 µM and the “MDCK-MDR1-BCRP Efflux Ratio” value [1] was 4.2. For the same compound, the IC50 (hERG [2]) was > 40 µM.

In the case of `CNC(=O)c1ccc(N2CCN(Cc3ccc4nc([C@H](C)F)c(=O)[nH]c4c3F)CC2)c(F)n1` (single isomer, unassigned) [Example 13, 6-fluoro-5-[4-[[5-fluoro-2-[(1S OR 1R)-1-fluoroethyl]-3-oxo-4H-quinoxalin-6-yl]methyl]piperazin-1-yl]-N-methyl-pyridine-2-carboxamide], the IC50 (PARP3) is reported as 62 µM, the IC50 (BRCA2 (−/−) DLD1 cells) is reported as 19 nM and the IC50 (PARP6) is reported as > 100 µM. For the same compound, the IC50 (PARP2) was > 100 µM, the IC50 (PARP1) was 9 nM and the “MDCK-MDR1-BCRP Efflux Ratio” value [3] was 3.0. The IC50 (hERG [4]) was > 40 µM, the IC50 (DLD1 cells) was 22 µM and the IC50 (PARP5a) was > 100 µM.

For `CNC(=O)c1ccc(N2CCN(Cc3ccc4nc(C(C)F)c(=O)[nH]c4c3F)CC2)c(C)n1` (single isomer, unassigned) [Example 14, 5-[4-[[5-fluoro-2-[(1S OR 1R)-1-fluoroethyl]-3-oxo-4H-quinoxalin-6-yl]methyl]piperazin-1-yl]-N,6-dimethyl-pyridine-2-carboxamide], the IC50 (PARP3) was 52 µM, the IC50 (BRCA2 (−/−) DLD1 cells) was 15 nM and the IC50 (PARP6) was > 100 µM. The IC50 (PARP2) was > 83 µM, the IC50 (PARP1) was 13 nM and the IC50 (PARP5a) was > 100 µM. For the same compound, the “MDCK-MDR1-BCRP Efflux Ratio” value [1] was 3.7 and the IC50 (hERG [2]) was > 40 µM.

With `CNC(=O)c1ccc(N2CCN(Cc3ccc4nc(C(C)F)c(=O)[nH]c4c3F)CC2)c(C)n1` (single isomer, unassigned) [Example 15, 5-[4-[[5-fluoro-2-[(1S OR 1R)-1-fluoroethyl]-3-oxo-4H-quinoxalin-6-yl]methyl]piperazin-1-yl]-N,6-dimethyl-pyridine-2-carboxamide] the IC50 (PARP3) was 43 µM, the IC50 (BRCA2 (−/−) DLD1 cells) was 14 nM and the IC50 (PARP6) was > 100 µM. The IC50 (PARP2) was > 100 µM, the IC50 (PARP1) was 12 nM and the IC50 (PARP5a) was > 100 µM. For the same compound, the “MDCK-MDR1-BCRP Efflux Ratio” value [1] was 3.7 and the IC50 (hERG [2]) was > 38 µM.

In the case of `O[C@H]([C@H](O)[C@@H]1CO1)[C@H]1CO1` [VAL-083, dianhydrogalactitol], the safety and tolerability [5] is listed as “generally safe and well tolerated”.
